Assay results from patent US20260234139A1, “PGDH INHIBITORS AND METHODS OF MAKING AND USING” (Epirium Bio Inc., priority 2023, published 2026).

Assays:
15-PGDH/HPGD = target: T1, 15-PGDH/HPGD (Homo sapiens, UniProt P15428); test: hPGDH inhibitor screening biochemical assay; conditions: 10 nM enzyme, 15 μM Prostaglandin E2, 0.25 mM NAD, fluorescence ex/em 340/485 nm
T1 construct: purchased R&D System 5660-DH
T1 sequence (P15428 1-266): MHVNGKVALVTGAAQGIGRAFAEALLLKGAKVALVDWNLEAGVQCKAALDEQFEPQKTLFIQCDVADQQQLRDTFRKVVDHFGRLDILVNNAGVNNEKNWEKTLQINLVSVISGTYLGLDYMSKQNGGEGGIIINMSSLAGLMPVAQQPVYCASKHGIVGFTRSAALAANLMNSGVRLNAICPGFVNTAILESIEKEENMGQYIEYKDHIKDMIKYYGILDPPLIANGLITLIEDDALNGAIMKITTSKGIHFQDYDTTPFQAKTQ
Method in brief: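 Recombinant 15-PGDH (10 nM) preincubated with compound 10 min at 37° C, then 15 μM PGE2 and 0.25 mM NAD⁺ added for 10 min at room temperature in 50 mM Tris-HCl pH 7.5, 0.01% Tween 20. NADH fluorescence at ex/em 340/485 nm; 10-point dose response.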

A549 = A549 EC50 (cell assay, method not described); type: cell-based; conditions: Homo sapiens, A549, A549

Structure (SMILES)	IC50 (15-PGDH/HPGD) [nM]	EC50 (A549) [nM]
CCCCC(OC)c1cnc2c(ccn2-c2cc(Cl)cc(-c3nnc[nH]3)c2)c1 (stereo not drawn) [Compound 16]	100 to 1000	100 to 1000
Cc1nn(-c2ccc(C(=O)O)cc2)c2ncc([C@H](O)COC3CC3)cc12 [Compound 126B]	< 100	100 to 1000
CCOC1([C@@H](O)c2cnc3c(cnn3-c3cccc(-c4nnc[nH]4)c3)c2)CCC1 [Compound 83B]	100 to 1000	≥ 1000
O=C(O)CCc1ccc(-n2ncc3cc([C@H](O)COC4CCCC4)cnc32)cc1F [Compound 88B]	< 100	100 to 1000
O=C(O)c1ccc(-n2ncc3cc([C@@H](O)COC4CCC4)cnc32)cn1 [Compound 96B]	< 100	100 to 1000
O=C(O)[C@H]1CCN(c2ccc(-n3ncc4cc([C@@H](O)COC5CCC5)cnc43)cc2)C1 [Compound 87A]	< 100	≥ 1000
O[C@@H](COC1CC1)c1cnc2c(cnn2-c2cccc(-c3nnc[nH]3)c2)c1 [Compound 37A]	< 100	100 to 1000
C[S+]([O-])c1cccc(-n2ncc3cc([C@H](O)COC4CCC4)cnc32)c1 (stereo partly drawn) [Compound 125B]	≥ 1000	≥ 1000
O[C@@H](c1cnc2c(cnn2-c2ccc3nc(N4CCOCC4)nn3c2)c1)C1COC1 [Compound 64B]	< 100	< 100
CC1(OC[C@H](O)c2cnc3c(cnn3-c3ccc(C(=O)O)cc3)c2)CCC1 [Compound 90A]	< 100	100 to 1000
CCOC1([C@H](O)c2cnc3c(cnn3-c3cccc(-c4nnc[nH]4)c3)c2)CC1 [Compound 63A]	≥ 1000	≥ 1000
CN(C)C(=O)c1cccc(-n2ncc3cc([C@H](O)COC4CCC4)cnc32)c1 [Compound 111B]	≥ 1000	≥ 1000
CC(C)(O)C[C@@H](O)c1cnc2c(cnn2-c2cccc(-c3nnc[nH]3)c2)c1 [Compound 43A]	< 100	≥ 1000
CC(C)OC[C@H](O)c1cnc2c(cnn2-c2ccc(OCC(=O)O)c(F)c2)c1 [Compound 74B]	100 to 1000	≥ 1000
COC1([C@@H](O)c2cnc3c(cnn3-c3cccc(-c4nnc[nH]4)c3)c2)CCC1 [Compound 65A]	100 to 1000	100 to 1000
O[C@H](COC1CCC1)c1cnc2c(ccn2-c2cccc(-c3nnc[nH]3)c2)n1 [Compound 30A]	< 100	100 to 1000
CC(C)OC[C@H](O)c1cnc2c(ccn2-c2cccc(-c3nnc[nH]3)c2)c1 [Compound 29A]	< 100	< 100
COCCNC(=O)c1ccc(-n2ncc3cc([C@H](O)COC4CCC4)cnc32)cc1 [Compound 118B]	100 to 1000	100 to 1000
O=C(O)c1ccc(-n2ncc3cc([C@H](O)COC4CCC4)cnc32)cc1 [Compound 42B]	< 100	< 100
CC1(C)CC(OC[C@H](O)c2cnc3c(cnn3-c3ccc(C(=O)O)nc3)c2)C1 [Compound 116A]	100 to 1000	≥ 1000
O[C@@H](COC1CCC1)c1cnc2c(cnn2-c2ccc(N3CCOCC3)cc2)c1 [Compound 76A]	100 to 1000	≥ 1000
CNC(=O)c1ccc(-n2ncc3cc([C@H](O)COC(C)C)cnc32)cc1 [Compound 67A]	< 100	< 100
CC1(OC[C@@H](O)c2cnc3c(cnn3-c3ccc(C(=O)O)cc3)c2)CC1 [Compound 92B]	< 100	< 100
CC(C)OC[C@@H](O)c1cnc2c(ccn2-c2cccc(-c3nnc[nH]3)c2)c1 [Compound 29B]	< 100	< 100
CC(C)OC[C@@H](O)c1cnc2c(ccn2-c2ccc(C(=O)O)cc2)n1 [Compound 49B]	< 100	100 to 1000
O=C(O)c1ccc(-n2ccc3nc([C@H](O)C4CC(F)(F)C4)cnc32)cc1 [Compound 46A]	< 100	< 100

Structure (SMILES)	IC50 (15-PGDH/HPGD) [nM]	EC50 (A549) [nM]
COC1([C@H](O)c2cnc3c(cnn3-c3cccc(-c4nnc[nH]4)c3)c2)CCC1 [Compound 65B]	≥ 1000	≥ 1000
O[C@H](c1cnc2c(ccn2-c2cc(Cl)cc(-c3nnc[nH]3)c2)c1)C1CCC(F)(F)CC1 [Compound 12B]	< 100	< 100
O=C(O)CCc1ccc(-n2ncc3cc([C@@H](O)COC4CC4)cnc32)cc1F [Compound 86A]	< 100	< 100
CCCOC(C)(C)[C@@H](O)c1cnc2c(cnn2-c2cccc(-c3nnc[nH]3)c2)c1 [Compound 57B]	< 100	< 100
CC(C)(O)[C@@H](O)c1cnc2c(cnn2-c2cccc(-c3nnc[nH]3)c2)c1 [Compound 33B, (S)-1-(1-(3-(4H-1,2,4-triazol-3-yl)phenyl)-1H-pyrazolo[3,4-b]pyridin-5-yl)-2-methylpropane-1,2-diol]	100 to 1000	≥ 1000
CCOC(C)(C)[C@@H](O)c1cnc2c(cnn2-c2ccc(C(=O)O)cc2)c1 [Compound 53B]	< 100	< 100
O=C(O)c1ccc(-n2ncc3cc([C@H](O)COCC4(C(F)(F)F)CC4)cnc32)cc1 [Compound 113B]	< 100	100 to 1000
CC(C)OC[C@@H](O)c1cnc2c(cnn2-c2ccc(CCCC(=O)O)cc2)c1 [Compound 66A]	< 100	< 100
C[S+]([O-])c1cccc(-n2ncc3cc([C@@H](O)COC4CCC4)cnc32)c1 (stereo partly drawn) [Compound 125A]	100 to 1000	100 to 1000
COC(C)(C)C[C@H](O)c1cnc2c(cnn2-c2cccc(-c3nnc[nH]3)c2)c1 [Compound 54B]	< 100	100 to 1000
CNC(=O)c1cccc(-n2ncc3cc([C@@H](O)COC4CCC4)cnc32)c1 [Compound 110A]	< 100	< 100
CC(C)OC[C@H](O)c1cnc2c(cnn2-c2ccc(OCC(=O)O)cc2)c1 [Compound 78A]	100 to 1000	≥ 1000
O=C(O)c1ccc(-n2ncc3cc([C@@H](O)COCC4(C(F)(F)F)CC4)cnc32)cc1 [Compound 113A]	100 to 1000	≥ 1000
O[C@@H](c1cnc2c(cnn2-c2cccc(-c3nnc[nH]3)c2)c1)C1C2CCCCC21 (stereo partly drawn) [Compound 51B]	100 to 1000	100 to 1000
CC1(COC[C@@H](O)c2cnc3c(cnn3-c3ccc(C(=O)O)cc3)c2)CC1 [Compound 106B]	< 100	≥ 1000
O=C(O)c1ccc(-n2ncc3cc([C@H](O)COCC4CC4)ccc32)cc1 [Compound 114B]	< 100	100 to 1000
CS(=O)(=O)c1ccc(-n2ncc3cc([C@@H](O)COC4CCC4)cnc32)cc1 [Compound 121A]	100 to 1000	100 to 1000
CC(C)OC[C@H](O)c1cnc2c(cnn2-c2ccc(CCC(=O)O)cc2)c1 [Compound 69B]	100 to 1000	100 to 1000
CC(C)(C)OC[C@@H](O)c1cnc2c(ccn2-c2cccc(-c3nnc[nH]3)c2)n1 [Compound 26B]	< 100	< 100
CC(C)NC[C@@H](O)c1cnc2c(cnn2-c2cccc(-c3nnc[nH]3)c2)c1 [Compound 27B, (S)-1-(1-(3-(4H-1,2,4-triazol-3-yl)phenyl)-1H-pyrazolo[3,4-b]pyridin-5-yl)-2-(isopropylamino) ethan-1-ol]	< 100	100 to 1000
CCOC1([C@@H](O)c2cnc3c(cnn3-c3ccc(C(=O)O)cc3)c2)CCC1 [Compound 85B]	≥ 1000	≥ 1000
O=C(O)c1ccc(-n2ncc3cc([C@H](O)COC4CCCC4)cnc32)cc1 [Compound 89B]	< 100	< 100
O[C@@H](c1cnc2c(cnn2-c2cccc(-c3nnc[nH]3)c2)c1)[C@@H]1CCOC1 [Compound 68A]	< 100	< 100
O[C@H](c1cnc2c(cnn2-c2cccc(-c3nnc[nH]3)c2)c1)C1COC1 [Compound 28B]	< 100	100 to 1000
CC(C)OC[C@H](O)c1cnc2c(cnn2-c2ccc3nc(N4CCOCC4)nn3c2)c1 [Compound 60B]	≥ 1000	100 to 1000
